Results published in patent US9708289B2, “Imidazole diketone compound and use thereof” (HINOVA PHARMACEUTICALS INC., priority 2013, dated 2017).

What was measured:
[1] = Evaluation of pharmacokinetics in mice; type: in vivo, Kunming mice (KM mice); conditions: 10 mg/kg intragastric; for Tmax: Kunming (KM), mouse, po; for Tmax / Cmax: male KM mice, plasma; for Cmax compared with undeuterated compound 10: mice
Description: 10 mg/kg compound 10, 14, 17, 20 were intragastrically administered to Healthy Kunming mice (KM mice), male, weighing 18-20 g. Compounds were dissolved in DMSO:PEG400:H2O 1:5:14. The volume of administration was 10 mL/kg. Before testing, the mice fasted for 12 h and drunk water ad libitum. Then, the mice were fed together at 2 h after administration. 0.3 mL of blood were took from 3 mice through retrobulbar venous plexus at 0.5, 1.0, 2.0, 4.0, 6.0 and 24 h after administration, placed in heparinized tubes, and centrifuged for 5 min at 11000 rpm. The plasma was separated and frozen in a refrigerator at −20° C. 100 uL of serum was transferred with a pipettor into a clean plastic centrifuge tube marked with compound's name and time point, and diluted with acetonitrile (CH3CN) and centrifuged. The concentration of drug was analyzed by LC-MS. Serum was stored at −80° C. before analysis. The pharmacokinetic parameters of deuterated compound (compound 14, 17, and 20) and undeuterated compound (compound 10) were show in following table.

[2] = tested on: human prostate cancer LNCaP; experiment: Inhibition of the growth of prostate cancer cells (MTT, R1881-stimulated); type: cell-based; conditions: for IC50: Homo sapiens, R1881 added, 96 hours, MTT, read-out: IC50, inhibition activity on LNCap/AR cell
Description: The ability of compounds to inhibit the growth of prostate cancer cells was tested:
First, the human prostate cancer LNCaP (purchased from ATCC, USA) was transferred to a RPM11640 culture medium containing 10% charcoal-stripped fetal bovine serum (FBS). After cultured for three days, the cells were digested with 0.25% trypsin and counted through trypan blue staining. The cells were plated, with 100 μL cell suspension containing 4000 cells per well. 200 μL medium was added to the wells around the cell plate for avoiding edge effects.
The next day, 6 drug concentrations was prepared (48.6 μM, 19.44 μM, 7.776 μM, 3.11 μM, 1.24 μM, 0.5 μM) before administration, and 100 μL of corresponding compound at corresponding concentration was added into each well of a cell plate. The cell plate was placed in a cell incubator for 30 min, 10 μL of 4 nM R1881 was added into each well and homogeneously mixed. Upon the addition of R1881, the cell plate was placed in a cell incubator and incubated at 37° C., under 5% CO2 for 96 hours. Afterwards, 40 μL of MTT (prepared in PBS, concentration is 2.5 mg/mL) was added into each wells, and incubated at 37° C. for 2 hours. The supernatant was sucked off, and 100 μL of DMSO was added into each well. The plate was shaken by a vibrator for 10 min for dissolving formazan. The plate was read at 570 nm wavelength using a microplate reader in the unit of OD. The inhibition rate of test compounds was calculated with the following equation: IR (%)=(ODcontrol−ODsample)/(ODcontrol−ODblank)×100%
The inhibition rate curve of test compounds was plotted using the software XLFit (Formula 205), which can calculate the 50% inhibition rate, i.e. IC50.

[3] = Evaluation of pharmacokinetics in rats; type: in vivo, SD rats; conditions: 10 mg/kg intragastric; for AUCINF_obs / Tmax / AUC(0-t) / MRT / half-life / Cmax: male SD rats, mean, n = 4
Description: 10 mg/kg compound 10, and 14 were intragastrically administered to SD rats male, weighing […]. Compounds were dissolved in DMSO:PEG400:H2O 1:5:14. The volume of administration was 10 mL/kg. Conventional methods were used for the results evaluation.

Work on `[2H]c1cc(C(=O)NC)c(F)c([2H])c1N1C(=S)N(c2cnc(C#N)c(C(F)(F)F)c2)C(=O)C12CCC2` [Compound 17, 4-[7-(6-cyano-5-trifluoromethyl-3-pyridyl)-8-oxo-6-thio-5,7-diazaspiro [3,4]-5-octyl]-3,5-bideuterium-2-fluoro-N-methyl-benzamide] yielded a Tmax [1] of 6 h and a Cmax [1] of 3.48 µg/mL.
With `[2H]C([2H])([2H])NC(=O)c1ccc(N2C(=S)N(c3cnc(C#N)c(C(F)(F)F)c3)C(=O)C23CCC3)cc1F` [Compound 14, 4-[7-(6-cyano-5-trifluoromethyl-3-pyridyl)-8-oxo-6-thio-5,7-diazaspiro [3, 4]-5-octyl]-2-fluoro-N-trideuterated methyl-benzamide] the “inhibition on the growth of prostate cancer cell compared with compound 10” value [2] was “better inhibition”, the IC50 [2] was 0.28 µM and the AUCINF_obs [3] was 28.729 µg·h/mL. The Tmax [3] was 3.500 h, the AUC(0-t) ([3]; rat, in vivo, po) was 24.1 µg·h/mL and the MRT ([3]; rat, in vivo, po) was 13 h. The half-life ([3]; rat, in vivo, po) was 8.93 h, the Cmax ([3]; rat, in vivo, po, read-out: Cmax) was 1.7 µg/mL and the “AUC relative to compound 10” value ([3]; rats) was “about 2 fold”. For the same molecule, the “Cmax relative to compound 10” value ([3]; rats) was “about 2 fold”, the “half-life compared with compound 10” value ([3]; rats) was “longer half-life” and the Tmax [1] was 4 h. The Cmax [1] was 4.48 µg/mL and the “Cmax compared with undeuterated compound 10” value [1] was “significantly increased”.
With `[2H]c1cc(C(=O)NC([2H])([2H])[2H])c(F)c([2H])c1N1C(=S)N(c2cnc(C#N)c(C(F)(F)F)c2)C(=O)C12CCC2` [Compound 20, 4-[7-(6-cyano-5-trifluoromethyl-3-pyridyl)-8-oxo-6-thio-5,7-diazaspiro[3,4]-5-octyl]-3,5-bideuterium-2-fluoro-N-trideuteromethyl-benzamide] the Tmax [1] was 4 h, the Cmax [1] was 3.94 µg/mL and the “Cmax compared with undeuterated compound 10” value [1] was “significantly increased”.
Work on `CNC(=O)c1ccc(N2C(=S)N(c3cnc(C#N)c(C(F)(F)F)c3)C(=O)C23CCC3)cc1F` [Compound 10, 4-[7-(6-cyano-5-trifluoromethyl-3-pyridyl)-8-oxo-6-thio-5,7-diazaspiro [3, 4]-5-octyl]-2-fluoro-N-methyl-benzamide, reference compound] yielded an IC50 [2] of 0.637 µM, an AUCINF_obs [3] of 14.752 µg·h/mL and a Cmax [3] of 0.946 µg/mL. It also gave a Tmax [3] of 3.500 h, an AUC(0-t) ([3]; rat, in vivo, po) of 13.1 µg·h/mL and an MRT ([3]; rat, in vivo, po) of 10.7 h. For the same molecule, the half-life ([3]; rat, in vivo, po) was 7.38 h, the Tmax [1] was 6 h and the Cmax [1] was 3.32 µg/mL.
